Results on 6 compounds are retold here after ChEMBL document CHEMBL1156391, “Screening of triterpenoids isolated from Phyllanthus flexuosus for DNA topoisomerase inhibitory activity” (J Nat Prod, 2001).

Calls of active or inactive are those of the source. No cut-off for these calls is given here.

For assay [1], the target named is T1, DNA topoisomerase 2-alpha (Homo sapiens, UniProt P11388). The experiment in a line: Inhibition of 1 unit human topoisomerase 2alpha catalytic activity assessed as relaxation of 198 ng supercoiled pBR322 DNA at 200 uM by agarose gel electrophoresis.
Assay [2] addresses T1, DNA topoisomerase 2-alpha. The assay is described as follows: Inhibition of human 1 unit topoisomerase 2alpha catalytic activity assessed as relaxation of 198 ng supercoiled pBR322 DNA by agarose gel electrophoresis.
Assay [3] has as its target T2, DNA topoisomerase 1 (Homo sapiens) (UniProt P11387).
T2 sequence (whole entry): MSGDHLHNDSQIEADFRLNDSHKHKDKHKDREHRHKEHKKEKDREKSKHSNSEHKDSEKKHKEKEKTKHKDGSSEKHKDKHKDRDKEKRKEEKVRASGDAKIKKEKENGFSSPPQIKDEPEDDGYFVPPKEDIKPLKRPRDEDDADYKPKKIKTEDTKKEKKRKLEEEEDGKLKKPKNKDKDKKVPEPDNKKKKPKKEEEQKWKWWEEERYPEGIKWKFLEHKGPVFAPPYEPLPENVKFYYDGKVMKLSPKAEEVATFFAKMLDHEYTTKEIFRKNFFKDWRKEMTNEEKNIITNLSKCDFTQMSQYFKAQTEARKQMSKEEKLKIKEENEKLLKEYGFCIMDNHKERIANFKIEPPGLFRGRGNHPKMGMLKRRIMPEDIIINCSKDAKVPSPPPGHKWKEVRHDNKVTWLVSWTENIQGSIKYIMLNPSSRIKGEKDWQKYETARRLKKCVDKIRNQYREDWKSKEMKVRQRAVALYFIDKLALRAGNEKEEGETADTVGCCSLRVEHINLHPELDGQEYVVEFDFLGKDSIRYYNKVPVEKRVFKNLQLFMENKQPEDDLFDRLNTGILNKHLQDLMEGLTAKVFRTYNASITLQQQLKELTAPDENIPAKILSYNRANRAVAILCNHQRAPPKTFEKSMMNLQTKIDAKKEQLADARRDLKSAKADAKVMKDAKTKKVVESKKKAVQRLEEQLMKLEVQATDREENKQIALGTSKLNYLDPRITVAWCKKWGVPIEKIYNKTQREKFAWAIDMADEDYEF
The assay is described as follows: Inhibition of human topoisomerase 1 assessed as relaxation of supercoiled pBR322 DNA up to 200 uM by agarose gel electrophoresis.

Assay [4] deals with T1, DNA topoisomerase 2-alpha. The assay is described as follows: Inhibition of 1 unit human topoisomerase 2alpha catalytic activity assessed as relaxation of 198 ng supercoiled pBR322 DNA at 100 uM by agarose gel electrophoresis.

What is called inhibition is the relative decrease from the control value, in per cent. One may read the IC50 as the concentration needed to halve the response being measured.

T1 sequence (P11388 whole entry): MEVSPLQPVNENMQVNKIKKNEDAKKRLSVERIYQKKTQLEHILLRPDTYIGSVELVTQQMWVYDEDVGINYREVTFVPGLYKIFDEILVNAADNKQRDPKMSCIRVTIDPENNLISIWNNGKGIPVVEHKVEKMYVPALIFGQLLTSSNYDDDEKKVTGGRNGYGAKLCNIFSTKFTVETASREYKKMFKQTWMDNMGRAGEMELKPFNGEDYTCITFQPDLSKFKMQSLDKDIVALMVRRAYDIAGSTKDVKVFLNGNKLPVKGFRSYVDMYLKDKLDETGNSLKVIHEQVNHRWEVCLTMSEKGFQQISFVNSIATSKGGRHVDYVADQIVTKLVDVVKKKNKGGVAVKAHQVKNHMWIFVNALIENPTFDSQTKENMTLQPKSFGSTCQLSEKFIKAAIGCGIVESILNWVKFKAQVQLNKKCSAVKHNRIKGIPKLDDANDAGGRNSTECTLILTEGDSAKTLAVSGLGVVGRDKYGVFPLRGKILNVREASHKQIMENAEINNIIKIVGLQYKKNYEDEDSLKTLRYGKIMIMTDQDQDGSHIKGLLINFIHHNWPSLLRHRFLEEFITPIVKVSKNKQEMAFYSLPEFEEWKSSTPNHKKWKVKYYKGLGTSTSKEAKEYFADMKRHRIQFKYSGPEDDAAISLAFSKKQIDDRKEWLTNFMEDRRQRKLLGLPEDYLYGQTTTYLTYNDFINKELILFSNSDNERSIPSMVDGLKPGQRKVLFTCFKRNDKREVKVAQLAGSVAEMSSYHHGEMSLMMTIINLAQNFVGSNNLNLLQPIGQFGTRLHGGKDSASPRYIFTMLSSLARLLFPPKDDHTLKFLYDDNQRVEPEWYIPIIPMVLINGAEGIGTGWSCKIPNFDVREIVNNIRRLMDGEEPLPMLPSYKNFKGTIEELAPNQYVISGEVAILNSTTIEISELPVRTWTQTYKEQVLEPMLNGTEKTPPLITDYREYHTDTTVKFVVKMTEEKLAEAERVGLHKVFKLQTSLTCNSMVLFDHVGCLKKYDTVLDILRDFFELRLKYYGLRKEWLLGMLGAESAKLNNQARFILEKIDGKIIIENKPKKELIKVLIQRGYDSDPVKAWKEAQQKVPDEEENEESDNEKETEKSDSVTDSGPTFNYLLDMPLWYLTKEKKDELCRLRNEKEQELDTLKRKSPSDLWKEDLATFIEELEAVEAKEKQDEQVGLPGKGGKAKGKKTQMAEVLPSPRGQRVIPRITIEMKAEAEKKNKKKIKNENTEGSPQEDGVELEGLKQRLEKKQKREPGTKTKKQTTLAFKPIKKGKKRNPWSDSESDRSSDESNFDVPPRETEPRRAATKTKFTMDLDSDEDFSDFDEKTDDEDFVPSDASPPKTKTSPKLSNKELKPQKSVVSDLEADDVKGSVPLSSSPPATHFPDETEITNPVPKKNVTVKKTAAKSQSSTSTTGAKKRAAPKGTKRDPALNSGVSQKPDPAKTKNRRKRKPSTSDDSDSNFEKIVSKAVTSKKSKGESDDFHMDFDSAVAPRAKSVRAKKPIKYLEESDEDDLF

Take `CC1(C)CC[C@]2(C)CC[C@]3(C)C(=CC[C@@H]4[C@@]5(C)CC[C@H](O)[C@](C)(CO)[C@@H]5CC[C@]43C)[C@@H]2C1`: the inhibition in assay [1] worked out at 33%. In assay [2], the IC50 is > 200 µM. Also, the result in assay [3] was inactive.

For `C=C(C)[C@@H]1CC[C@]2(CO)CC[C@]3(C)[C@H](CC[C@@H]4[C@@]5(C)CC[C@H](O)C(C)(C)[C@@H]5CC[C@]43C)[C@@H]12` [BETULIN], the result in assay [4] was Active. In assay [2], the Activity result was “Dose-dependent effect” and the IC50 amounted to 38.6 µM. Moreover, the outcome in assay [3] was inactive.

Regarding `CC1(C)CC[C@]2(C)C[C@H](O)[C@]3(C)C(=CC[C@@H]4[C@@]5(C)CC[C@H](O)[C@](C)(CO)[C@@H]5CC[C@]43C)[C@@H]2C1`, the outcome in assay [4] was Active. Moreover, in assay [2], the Activity entry was “Dose-dependent effect” and the IC50 amounted to 38.7 µM. The outcome in assay [3] was inactive.

As to `C=C(C)[C@@H]1CC[C@]2(C)CC[C@]3(C)[C@H](CC[C@@H]4[C@@]5(C)CC[C@H](O)[C@](C)(CO)[C@@H]5CC[C@]43C)[C@H]12`, the inhibition entry in assay [1] is “inactive”. Besides, in assay [3], the outcome was inactive.

For `CC1(C)CC[C@]2(C)C[C@H](O)[C@]3(C)C(=CC[C@@H]4[C@@]5(C)CC[C@H](O)C(C)(C)[C@@H]5CC[C@]43C)[C@@H]2C1`, the result in assay [4] was Active. Also, in assay [2], the Activity result was “Dose-dependent effect” and the IC50 came to 17.5 µM. Further, the result in assay [3] was inactive.

Regarding `C=C(C)[C@@H]1CC[C@]2(C)CC[C@]3(C)[C@H](CC[C@@H]4[C@@]5(C)CC[C@H](O)C(C)(C)[C@@H]5CC[C@]43C)[C@@H]12` [LUPEOL], in assay [4], the result was Active. Moreover, in assay [2], the Activity result is “Dose-dependent effect” and the concentration for half-maximal inhibition (IC50) turned out to be 10.4 µM. Moreover, in assay [3], the outcome was inactive.
